Experimental data reported in BindingDB's records for patent US20250313563 (The Broad Institute, 2025).
Values joined by “and” are separate entries in the source; they are usually repeats but may differ in a detail not shown here. Equal values may be shown once.

How the values were obtained:
[1] = target: Glycogen synthase kinase-3 alpha (Homo sapiens, UniProt P49840); experiment: TR-FRET Assay
How it was run: (§1)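 Signal is measured as TR-FRET between a terbium anti-phospho-Ser641 antibody and streptavidin-d2, added after an EDTA quench. Compounds are preincubated 30 min in assay buffer.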

[2] = target: Glycogen synthase kinase-3 beta (Homo sapiens, UniProt P49841); experiment: TR-FRET Assay
How it was run: as §1

Chain of Glycogen synthase kinase-3 alpha (P49840 whole entry): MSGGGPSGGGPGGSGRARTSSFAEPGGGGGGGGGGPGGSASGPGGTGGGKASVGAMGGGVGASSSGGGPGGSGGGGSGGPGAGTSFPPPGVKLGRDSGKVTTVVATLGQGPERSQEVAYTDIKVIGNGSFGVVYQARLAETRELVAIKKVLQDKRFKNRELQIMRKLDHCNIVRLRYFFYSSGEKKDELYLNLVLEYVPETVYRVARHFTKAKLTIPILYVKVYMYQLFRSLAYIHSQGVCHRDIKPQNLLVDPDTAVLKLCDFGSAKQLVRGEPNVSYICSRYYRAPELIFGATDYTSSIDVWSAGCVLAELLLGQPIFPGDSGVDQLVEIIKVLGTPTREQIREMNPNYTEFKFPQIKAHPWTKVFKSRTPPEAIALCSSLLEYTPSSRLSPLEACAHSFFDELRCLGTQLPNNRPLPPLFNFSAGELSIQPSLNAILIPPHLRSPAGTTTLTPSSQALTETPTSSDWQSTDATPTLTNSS
Chain of Glycogen synthase kinase-3 beta (P49841 whole entry): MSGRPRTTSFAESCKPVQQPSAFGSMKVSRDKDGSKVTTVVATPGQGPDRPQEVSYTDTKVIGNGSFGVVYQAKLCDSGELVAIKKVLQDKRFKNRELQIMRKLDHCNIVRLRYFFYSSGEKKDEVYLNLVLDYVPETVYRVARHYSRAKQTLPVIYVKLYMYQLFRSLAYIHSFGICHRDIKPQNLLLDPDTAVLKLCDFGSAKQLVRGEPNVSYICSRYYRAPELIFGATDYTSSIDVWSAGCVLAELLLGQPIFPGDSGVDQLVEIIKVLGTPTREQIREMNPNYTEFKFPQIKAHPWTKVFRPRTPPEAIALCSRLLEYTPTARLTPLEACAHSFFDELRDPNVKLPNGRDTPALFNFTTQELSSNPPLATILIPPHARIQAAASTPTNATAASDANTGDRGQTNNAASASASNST

Row | Compound | IC50 [1] | IC50 [2]
1 | CCC1(c2cccc(C(F)(F)F)c2)C2=CN=NC2NC2=C1C(=O)N(C)C(C)(C)C2 (stereo not given) [US20250313563, Compound 823130] | < 0.1 µM | 0.1 to 1 µM
2 | CC[C@]1(c2cccc(-c3cnn(C)c3)c2)C2=CN=NC2NC2=C1C(=O)C[C@@H](C)C2 (stereo not given in full) [US20250313563, Compound 823721] | 0.1 to 1 µM | 0.1 to 1 µM
3 | CC[C@@]1(c2cccc(-c3cnn(C)c3)c2)C2=CN=NC2NC2=C1C(=O)C[C@H](C)C2 (stereo not given in full) [US20250313563, Compound 823724] | 0.1 to 1 µM | 1 to 5 µM
4 | CCC1(c2cccc(C(F)(F)F)c2)C2=CN=NC2NC2=C1C(=O)N(C(C)C)CC2 (stereo not given) [US20250313563, Compound 825755] | < 0.1 µM | 0.1 to 1 µM
5 | CC1(C)CC(=O)C2=C(C1)NC1=C(CN=N1)C21CCOCC1 [US20250313563, Compound 826648] | 0.1 to 1 µM | 0.1 to 1 µM
6 | CC(=O)N1CCC2(CC1)C1=C(N=NC1)NC1=C2C(=O)CC(C)(C)C1 [US20250313563, Compound 826649] | 0.1 to 1 µM | 1 to 5 µM
7 | CC1(C)CC(=O)C2=C(C1)NC1=C(CN=N1)C21CCCCC1 [US20250313563, Compound 826650] | < 0.1 µM | < 0.1 µM
8 | CCC1(c2cccc(CNC)c2)C2=CN=NC2NC2=C1C(=O)CC(C)(C)C2 (stereo not given) [US20250313563, Compound 826651] | 1 to 5 µM | > 5 µM
9 | CC[C@@]1(c2cccc(Br)c2)C2=CN=NC2NC2=C1C(=O)C[C@@H](C(F)(F)F)C2 (stereo not given in full) [US20250313563, Compound 826652] | < 0.1 µM | 0.1 to 1 µM
10 | CC[C@]1(c2cccc(Br)c2)C2=CN=NC2NC2=C1C(=O)C[C@@H](C(F)(F)F)C2 (stereo not given in full) [US20250313563, Compound 826653] | < 0.1 µM | 0.1 to 1 µM
11 | CC[C@@]1(c2cccc(Br)c2)C2=CN=NC2NC2=C1C(=O)C[C@H](C(F)(F)F)C2 (stereo not given in full) [US20250313563, Compound 826654] | > 5 µM | > 5 µM
12 | CC[C@]1(c2cccc(Br)c2)C2=CN=NC2NC2=C1C(=O)C[C@H](C(F)(F)F)C2 (stereo not given in full) [US20250313563, Compound 826655] | > 5 µM | > 5 µM
13 | CC1(C)CC(=O)C2=C(C1)NC1=C(CN=N1)C21CCOC1 (stereo not given) [US20250313563, Compound 826713] | 0.1 to 1 µM | 0.1 to 1 µM
14 | CN1CCC2(CC1)C1=C(N=NC1)NC1=C2C(=O)CC(C)(C)C1 [US20250313563, Compound 826714] | > 5 µM | > 5 µM
15 | CCC1(c2cccc(Br)c2)C2=C(CC(C)CC2=O)NC2N=NC(C(F)(F)F)=C21 (stereo not given) [US20250313563, Compound 826715] | < 0.1 µM | < 0.1 µM
16 | CC[C@]1(c2cccc(C(F)F)c2)C2=CN=NC2NC2=C1C(=O)CC(C)(C)C2 (stereo not given in full) [US20250313563, Compound 826717] | < 0.1 µM and 0.1 to 1 µM | < 0.1 µM and 1 to 5 µM
17 | CC[C@@]1(c2cccc(S(C)(=O)=O)c2)C2=CN=NC2NC2=C1C(=O)CC(C)(C)C2 (stereo not given in full) [US20250313563, Compound 826719] | 1 to 5 µM | > 5 µM
18 | CC(=O)N1CCC2(C1)C1=CN=NC1NC1=C2C(=O)CC(C)(C)C1 (stereo not given) [US20250313563, Compound 826763] | 0.1 to 1 µM | 1 to 5 µM
19 | CCC1(c2cccc(Br)c2)C2=CN=NC2NC2=C1C(=O)C(F)C(C)(C)C2 (stereo not given) [US20250313563, Compound 826764] | < 0.1 µM | 0.1 to 1 µM
20 | CC1CCCC12C1=C(N=NC1)NC1=C2C(=O)CC(C)(C)C1 (stereo not given) [US20250313563, Compound 826765] | 0.1 to 1 µM | 1 to 5 µM
21 | CC[C@@]1(c2ccccc2)C2=CN=NC2NC2=C1C(=O)[C@H](F)C(C)(C)C2 (stereo not given in full) [US20250313563, Compound 826766] | 0.1 to 1 µM | 0.1 to 1 µM
22 | CC[C@@]1(c2ccccc2)C2=CN=NC2NC2=C1C(=O)[C@@H](F)C(C)(C)C2 (stereo not given in full) [US20250313563, Compound 826767] | > 5 µM | > 5 µM
23 | CC[C@]1(c2ccccc2)C2=CN=NC2NC2=C1C(=O)[C@H](F)C(C)(C)C2 (stereo not given in full) [US20250313563, Compound 826768] | < 0.1 µM | 0.1 to 1 µM
24 | CC[C@]1(c2ccccc2)C2=CN=NC2NC2=C1C(=O)[C@@H](F)C(C)(C)C2 (stereo not given in full) [US20250313563, Compound 826769] | > 5 µM | > 5 µM
25 | CC[C@]1(c2cccc(C(F)(F)F)c2)C2=CN=NC2NC2=C1C(=O)N(C)C(C)(C)C2 (stereo not given in full) [US20250313563, Compound 826790] | 0.1 to 1 µM | 1 to 5 µM
26 | CC[C@@]1(c2cccc(C(F)(F)F)c2)C2=CN=NC2NC2=C1C(=O)N(C)C(C)(C)C2 (stereo not given in full) [US20250313563, Compound 826791] | 0.1 to 1 µM | 1 to 5 µM
27 | CC1(C)CC(=O)C2=C(C1)NC1N=NC(CCC(F)(F)F)=C1C2(C)c1ccccc1 (stereo not given) [US20250313563, Compound 828845] | 0.1 to 1 µM | 0.1 to 1 µM
28 | CC[C@]1(c2cccc(Br)c2)C2=C(C[C@@H](C)CC2=O)NC2N=NC(C(F)(F)F)=C21 (stereo not given in full) [US20250313563, Compound 828847] | < 0.1 µM | < 0.1 µM

Row | Compound | IC50 [1] | IC50 [2]
29 | CC[C@]1(c2cccc(Br)c2)C2=C(C[C@H](C)CC2=O)NC2N=NC(C(F)(F)F)=C21 (stereo not given in full) [US20250313563, Compound 828848] | < 0.1 µM | < 0.1 µM
30 | CC[C@@]1(c2cccc(Br)c2)C2=C(C[C@@H](C)CC2=O)NC2N=NC(C(F)(F)F)=C21 (stereo not given in full) [US20250313563, Compound 828849] | 0.1 to 1 µM | 0.1 to 1 µM
31 | CC[C@@]1(c2cccc(Br)c2)C2=C(C[C@H](C)CC2=O)NC2N=NC(C(F)(F)F)=C21 (stereo not given in full) [US20250313563, Compound 828850] | 0.1 to 1 µM | 0.1 to 1 µM
32 | CCC1(c2ccccc2)C2=C(N=NC2)NC2=C1C(=O)C(C)(C)CC2 (stereo not given) [US20250313563, Compound 835310] | 0.1 to 1 µM | 1 to 5 µM
33 | CC[C@@]1(c2cccc(Br)c2)C2=CN=NC2NC2=C1C(=O)[C@H](F)C(C)(C)C2 (stereo not given in full) [US20250313563, Compound 835313] | > 5 µM | > 5 µM
34 | CC[C@]1(c2cccc(Br)c2)C2=CN=NC2NC2=C1C(=O)[C@@H](F)C(C)(C)C2 (stereo not given in full) [US20250313563, Compound 835315] | 0.1 to 1 µM | 1 to 5 µM
35 | CCC1(c2cccc(-c3ccnc(C)c3)c2)C2=CN=NC2NC2=C1C(=O)CC(C)(C)C2 (stereo not given) [US20250313563, Compound 840857] | < 0.1 µM | 0.1 to 1 µM
36 | CN1CCC2(C1)C1=C(N=NC1)NC1=C2C(=O)CC(C)(C)C1 (stereo not given) [US20250313563, Compound 841867] | > 5 µM | > 5 µM
37 | CC1(C)CC(=O)C2=C(C1)NC1N=NC(CCC(F)(F)F)=C1C21CCc2c(F)cccc21 (stereo not given) [US20250313563, Compound 841868] | 0.1 to 1 µM | 0.1 to 1 µM
38 | CCC1(c2cccc(N(C)c3ccncc3)c2)C2=CN=NC2NC2=C1C(=O)CC(C)(C)C2 (stereo not given) [US20250313563, Compound 853910] | 0.1 to 1 µM | 1 to 5 µM
39 | CCC1(c2cccc(-n3ccnc3)c2)C2=CN=NC2NC2=C1C(=O)CC(C)(C)C2 (stereo not given) [US20250313563, Compound 854926] | < 0.1 µM | 0.1 to 1 µM
40 | CCC1(c2cccc(-c3ccncc3)c2)C2=CN=NC2NC2=C1C(=O)CC(C)C2 (stereo not given) [US20250313563, Compound 856947] | < 0.1 µM | 0.1 to 1 µM
41 | CC1(C)CC(=O)C2=C(C1)NC1N=NC(CCC(F)(F)F)=C1[C@]2(C)c1ccccc1 (stereo not given in full) [US20250313563, Compound 856949] | 0.1 to 1 µM | < 0.1 µM
42 | CC[C@]1(c2cccc(C(F)(F)F)c2)C2=CN=NC2NC2=C1C(=O)N(C(C)C)CC2 (stereo not given in full) [US20250313563, Compound 857336] | < 0.1 µM | 0.1 to 1 µM
43 | CC[C@@]1(c2cccc(C(F)(F)F)c2)C2=CN=NC2NC2=C1C(=O)N(C(C)C)CC2 (stereo not given in full) [US20250313563, Compound 857362] | > 5 µM | > 5 µM
44 | CCC1(c2ccccc2)C2=C(N=NC2)NC2=C1C(=O)C1CCC21 (stereo not given) [US20250313563, Compound 861716] | 1 to 5 µM | > 5 µM
45 | CCC1(c2ccccc2)C2=C(N=NC2)NC2=C1C(=O)C(C)(C)SC2 (stereo not given) [US20250313563, Compound 862028] | 0.1 to 1 µM | 1 to 5 µM
46 | CCC1(c2cccc(N(C)c3cccnc3)c2)C2=CN=NC2NC2=C1C(=O)CC(C)(C)C2 (stereo not given) [US20250313563, Compound 865168] | < 0.1 µM | < 0.1 µM
47 | CC[C@]1(c2cccc(-c3ccnc(C)c3)c2)C2=CN=NC2NC2=C1C(=O)CC(C)(C)C2 (stereo not given in full) [US20250313563, Compound 865169] | < 0.1 µM and 0.1 to 1 µM | 0.1 to 1 µM and > 5 µM
48 | CCC1(c2cccc(N3CCCC3=O)c2)C2=CN=NC2NC2=C1C(=O)CC(C)(C)C2 (stereo not given) [US20250313563, Compound 865171] | < 0.1 µM | 0.1 to 1 µM
49 | CCC1(c2cccc(N3[C@H](C)CCC[C@@H]3C)c2)C2=CN=NC2NC2=C1C(=O)CC(C)(C)C2 (stereo not given in full) [US20250313563, Compound 865172] | 0.1 to 1 µM | 1 to 5 µM
50 | CC1(C)CC(=O)C2=C(C1)NC1=C(CN=N1)C21CCC(C(F)(F)F)CC1 (stereo not given) [US20250313563, Compound 865193] | < 0.1 µM and 0.1 to 1 µM | < 0.1 µM and 1 to 5 µM
51 | CCC1(c2cccc(CN(C)C(C)=O)c2)C2=CN=NC2NC2=C1C(=O)CC(C)(C)C2 (stereo not given) [US20250313563, Compound 865194] | 0.1 to 1 µM | 1 to 5 µM
52 | CCC1(c2cccc(CN(C)C(=O)C(C)C)c2)C2=CN=NC2NC2=C1C(=O)CC(C)(C)C2 (stereo not given) [US20250313563, Compound 865195] | 0.1 to 1 µM | > 5 µM
53 | CCC1(c2cccc(CN(C)C(=O)COC)c2)C2=CN=NC2NC2=C1C(=O)CC(C)(C)C2 (stereo not given) [US20250313563, Compound 865196] | 0.1 to 1 µM | > 5 µM
54 | CC[C@@]1(c2ccccc2)C2=CN=NC2NC2=C1C(=O)[C@@H](C)C[C@@H]2C (stereo not given in full) [US20250313563, Compound 865198] | 0.1 to 1 µM | 1 to 5 µM
55 | CC[C@]1(c2ccccc2)C2=CN=NC2NC2=C1C(=O)[C@H](C)C[C@H]2C (stereo not given in full) [US20250313563, Compound 865199] | 1 to 5 µM | > 5 µM
